Reference: PubChem BioAssay AID2838 (The Scripps Research Institute Molecular Screening Center, 2010)
The source made the active and inactive calls.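 How the source made its calls: active means IC50 at or below 10 µM; inactive means IC50 above 10 µM.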

Target: tRNA 2'-phosphotransferase Tpt1 (Candida albicans SC5314)
Test: tRNA 2'-phosphotransferase enzyme inhibition potency – biochemical, fluorescence polarization, dose response, late-stage follow-up (AID 2838)
Settings: recombinant caTpt1, RNase T1-coupled fluorescence polarization

IC50 | SMILES
inactive | NC(=O)c1cc[n+](CC2=C(C(=O)O)N3C(=O)[C@@H](NC(=O)C(c4ccccc4)S(=O)(=O)O)[C@H]3SC2)cc1 (some centres undefined)
> 49.8 µM (inactive) | NS(=O)(=O)c1cc(C(=O)NC2CCSc3ccccc32)ccc1Cl (centres undefined)
> 49.8 µM (inactive) | CC1=C(C#N)C(=O)N(C2CCS(=O)(=O)C2)C(=O)/C1=C\c1ccco1 (centres undefined)
> 49.8 µM (inactive) | OC(Cn1cncn1)(Cn1cncn1)c1ccc(F)cc1F
